Conditions: Fluid (supercritical or subcritical phases), vibrating tube

CCCCCO [pentan-1-ol]
Conditions | mass density [kg/m3]
312.96 K, 512 kPa | 799.65
312.96 K, 1022 kPa | 800.04
312.96 K, 1998 kPa | 800.77
312.96 K, 3005 kPa | 801.53
312.96 K, 4003 kPa | 802.28
312.96 K, 5002 kPa | 803.02
312.96 K, 6018 kPa | 803.76
312.96 K, 6994 kPa | 804.49
312.96 K, 8008 kPa | 805.21
312.96 K, 9005 kPa | 805.93
312.96 K, 10008 kPa | 806.66
312.96 K, 11008 kPa | 807.37
312.96 K, 12000 kPa | 808.07
312.96 K, 13024 kPa | 808.78
312.96 K, 13987 kPa | 809.45
312.96 K, 15014 kPa | 810.14
312.96 K, 15991 kPa | 810.8
312.96 K, 17019 kPa | 811.48
312.96 K, 17991 kPa | 812.12
312.96 K, 19007 kPa | 812.79
312.96 K, 19992 kPa | 813.44
312.96 K, 21031 kPa | 814.1
312.96 K, 22041 kPa | 814.76
312.96 K, 23014 kPa | 815.41
312.96 K, 24003 kPa | 816.04
312.96 K, 25037 kPa | 816.73
322.89 K, 520 kPa | 792.06
322.89 K, 1010 kPa | 792.47
322.89 K, 2005 kPa | 793.27
322.89 K, 3007 kPa | 794.07
322.89 K, 4005 kPa | 794.86
322.89 K, 5018 kPa | 795.63
322.89 K, 6001 kPa | 796.42
322.89 K, 7016 kPa | 797.2
322.89 K, 8020 kPa | 797.97
322.89 K, 8997 kPa | 798.71
322.89 K, 10001 kPa | 799.47
322.89 K, 11005 kPa | 800.21
322.89 K, 11996 kPa | 800.95
322.89 K, 13002 kPa | 801.68
322.89 K, 14013 kPa | 802.4
322.89 K, 15005 kPa | 803.11
322.89 K, 16014 kPa | 803.82
322.89 K, 17001 kPa | 804.51
322.89 K, 18016 kPa | 805.21
322.89 K, 19012 kPa | 805.89
322.89 K, 19992 kPa | 806.56
322.89 K, 21036 kPa | 807.26
322.89 K, 22003 kPa | 807.92
322.89 K, 23024 kPa | 808.61
322.89 K, 23994 kPa | 809.26
322.89 K, 25023 kPa | 810
332.79 K, 493 kPa | 784.29
332.79 K, 1014 kPa | 784.76
332.79 K, 2006 kPa | 785.61
332.79 K, 3025 kPa | 786.48
332.79 K, 4011 kPa | 787.28
332.79 K, 5020 kPa | 788.11
332.79 K, 6003 kPa | 788.91
332.79 K, 6997 kPa | 789.73
332.79 K, 8009 kPa | 790.54
332.79 K, 8995 kPa | 791.31
332.79 K, 9996 kPa | 792.12
332.79 K, 11018 kPa | 792.9
332.79 K, 11995 kPa | 793.66
332.79 K, 13023 kPa | 794.45
332.79 K, 13999 kPa | 795.19
332.79 K, 15010 kPa | 795.95
332.79 K, 16028 kPa | 796.68
332.79 K, 17003 kPa | 797.41
332.79 K, 18040 kPa | 798.14
332.79 K, 19004 kPa | 798.84
332.79 K, 20035 kPa | 799.59
332.79 K, 21024 kPa | 800.29
332.79 K, 21993 kPa | 800.97
332.79 K, 23039 kPa | 801.71
332.79 K, 24015 kPa | 802.4
332.79 K, 25022 kPa | 803.12
342.76 K, 505 kPa | 776.31
342.76 K, 997 kPa | 776.77
342.76 K, 1995 kPa | 777.69
342.76 K, 3011 kPa | 778.59
342.76 K, 4012 kPa | 779.47
342.76 K, 5011 kPa | 780.34
342.76 K, 6011 kPa | 781.22
342.76 K, 7003 kPa | 782.03
342.76 K, 8015 kPa | 782.91
342.76 K, 9000 kPa | 783.73
342.76 K, 10019 kPa | 784.58
342.76 K, 11020 kPa | 785.4
342.76 K, 12002 kPa | 786.2
342.76 K, 13016 kPa | 787.02
342.76 K, 14024 kPa | 787.81
342.76 K, 15002 kPa | 788.59
342.76 K, 16007 kPa | 789.36
342.76 K, 17037 kPa | 790.15
342.76 K, 17988 kPa | 790.87
342.76 K, 19037 kPa | 791.66
342.76 K, 20003 kPa | 792.38
342.76 K, 21015 kPa | 793.14
342.76 K, 22019 kPa | 793.88
342.76 K, 23039 kPa | 794.62
342.76 K, 24027 kPa | 795.36
342.76 K, 25028 kPa | 796.1
352.71 K, 508 kPa | 768.15
352.71 K, 1011 kPa | 768.66
352.71 K, 1995 kPa | 769.61
352.71 K, 3014 kPa | 770.57
352.71 K, 3998 kPa | 771.49
352.71 K, 5022 kPa | 772.45
352.71 K, 6012 kPa | 773.35
352.71 K, 7006 kPa | 774.26
352.71 K, 8024 kPa | 775.17
352.71 K, 9005 kPa | 776.05
352.71 K, 10016 kPa | 776.94
352.71 K, 11026 kPa | 777.81
352.71 K, 12001 kPa | 778.65
352.71 K, 13002 kPa | 779.5
352.71 K, 14026 kPa | 780.35
352.71 K, 15000 kPa | 781.18
352.71 K, 16005 kPa | 781.98
352.71 K, 17023 kPa | 782.81
352.71 K, 18003 kPa | 783.59
352.71 K, 19049 kPa | 784.43
352.71 K, 20035 kPa | 785.2
352.71 K, 21002 kPa | 785.96
352.71 K, 21995 kPa | 786.73
352.71 K, 23020 kPa | 787.52
352.71 K, 24045 kPa | 788.32
352.71 K, 25009 kPa | 789.05
362.59 K, 517 kPa | 759.7
362.59 K, 1023 kPa | 760.25
362.59 K, 2005 kPa | 761.26
362.59 K, 3010 kPa | 762.29
362.59 K, 3998 kPa | 763.28
362.59 K, 5006 kPa | 764.25
362.59 K, 6013 kPa | 765.23
362.59 K, 7014 kPa | 766.21
362.59 K, 8007 kPa | 767.16
362.59 K, 9020 kPa | 768.1
362.59 K, 10006 kPa | 769.02
362.59 K, 10991 kPa | 769.93
362.59 K, 12025 kPa | 770.87
362.59 K, 13008 kPa | 771.76
362.59 K, 13998 kPa | 772.62
362.59 K, 15017 kPa | 773.51
362.59 K, 16000 kPa | 774.37
362.59 K, 17013 kPa | 775.24
362.59 K, 18032 kPa | 776.11
362.59 K, 19003 kPa | 776.9
362.59 K, 20030 kPa | 777.77
362.59 K, 20987 kPa | 778.55
362.59 K, 22033 kPa | 779.4
362.59 K, 23000 kPa | 780.2
362.59 K, 24031 kPa | 781.02
362.59 K, 25026 kPa | 781.82
